Test results as given in ChEMBL document CHEMBL4800722, “Data for DCP probe BI 605906” (2021).

Tests used:
[1] = target: Atypical kinase COQ8A, mitochondrial (Homo sapiens) (UniProt Q8NI60); experiment: ADCK3 Invitrogen Lab (UK) kinase screen (BI); settings: Compound concentration 1.0 uM
[2] = target: AMPK alpha2/beta2/gamma1 (Homo sapiens) (UniProt P54646+O43741+P54619); experiment: AMPK (A2/B2/G1) Invitrogen Lab (UK) kinase screen (BI); format: protein-complex assay; settings: Compound concentration 1.0 uM
[3] = target: AMP-activated protein kinase alpha-2/beta-2/gamma-2 (Homo sapiens) (UniProt P54646+O43741+Q9UGJ0); experiment: AMPK (A2/B2/G2) Invitrogen Lab (UK) kinase screen (BI); format: protein-complex assay; settings: Compound concentration 1.0 uM
[4] = target: Activin receptor type-1 (Homo sapiens) (UniProt Q04771); experiment: ACVR1 Invitrogen Lab (UK) kinase screen (BI); settings: Compound concentration 1.0 uM
Sequence of Activin receptor type-1 (Homo sapiens) (Q04771 whole entry): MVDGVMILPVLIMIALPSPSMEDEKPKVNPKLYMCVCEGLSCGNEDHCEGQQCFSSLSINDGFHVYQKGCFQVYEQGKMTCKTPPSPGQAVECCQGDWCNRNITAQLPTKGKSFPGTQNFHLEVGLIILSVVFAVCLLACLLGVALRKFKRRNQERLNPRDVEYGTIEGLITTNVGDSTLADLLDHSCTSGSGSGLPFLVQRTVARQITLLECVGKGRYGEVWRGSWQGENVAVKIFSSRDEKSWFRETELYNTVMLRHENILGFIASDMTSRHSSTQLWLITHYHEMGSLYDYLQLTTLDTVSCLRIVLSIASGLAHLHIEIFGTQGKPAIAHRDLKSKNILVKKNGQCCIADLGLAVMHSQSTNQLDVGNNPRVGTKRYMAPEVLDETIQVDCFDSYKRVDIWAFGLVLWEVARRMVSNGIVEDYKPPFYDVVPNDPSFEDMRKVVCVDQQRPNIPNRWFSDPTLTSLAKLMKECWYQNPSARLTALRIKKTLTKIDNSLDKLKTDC

[5] = target: Cytoplasmic tyrosine-protein kinase BMX (Homo sapiens) (UniProt P51813); experiment: BMX Invitrogen Lab (UK) kinase screen (BI); settings: Compound concentration 1.0 uM
[6] = target: Cyclin-dependent kinase 9 (Homo sapiens) (UniProt P50750); experiment: CDK9CYCLIN Invitrogen Lab (UK) kinase screen (BI); settings: Compound concentration 1.0 uM
[7] = target: Epithelial discoidin domain-containing receptor 1 (Homo sapiens) (UniProt Q08345); experiment: DDR1 Invitrogen Lab (UK) kinase screen (BI); settings: Compound concentration 1.0 uM
[8] = target: Phosphatidylinositol 4,5-bisphosphate 3-kinase catalytic subunit gamma isoform (Homo sapiens) (UniProt P48736); experiment: PIK3CG Invitrogen Lab (UK) kinase screen (BI); settings: Compound concentration 1.0 uM
[9] = target: Proto-oncogene tyrosine-protein kinase receptor Ret (Homo sapiens) (UniProt P07949); experiment: RET Invitrogen Lab (UK) kinase screen (BI)
Sequence of Proto-oncogene tyrosine-protein kinase receptor Ret (Homo sapiens) (P07949 whole entry): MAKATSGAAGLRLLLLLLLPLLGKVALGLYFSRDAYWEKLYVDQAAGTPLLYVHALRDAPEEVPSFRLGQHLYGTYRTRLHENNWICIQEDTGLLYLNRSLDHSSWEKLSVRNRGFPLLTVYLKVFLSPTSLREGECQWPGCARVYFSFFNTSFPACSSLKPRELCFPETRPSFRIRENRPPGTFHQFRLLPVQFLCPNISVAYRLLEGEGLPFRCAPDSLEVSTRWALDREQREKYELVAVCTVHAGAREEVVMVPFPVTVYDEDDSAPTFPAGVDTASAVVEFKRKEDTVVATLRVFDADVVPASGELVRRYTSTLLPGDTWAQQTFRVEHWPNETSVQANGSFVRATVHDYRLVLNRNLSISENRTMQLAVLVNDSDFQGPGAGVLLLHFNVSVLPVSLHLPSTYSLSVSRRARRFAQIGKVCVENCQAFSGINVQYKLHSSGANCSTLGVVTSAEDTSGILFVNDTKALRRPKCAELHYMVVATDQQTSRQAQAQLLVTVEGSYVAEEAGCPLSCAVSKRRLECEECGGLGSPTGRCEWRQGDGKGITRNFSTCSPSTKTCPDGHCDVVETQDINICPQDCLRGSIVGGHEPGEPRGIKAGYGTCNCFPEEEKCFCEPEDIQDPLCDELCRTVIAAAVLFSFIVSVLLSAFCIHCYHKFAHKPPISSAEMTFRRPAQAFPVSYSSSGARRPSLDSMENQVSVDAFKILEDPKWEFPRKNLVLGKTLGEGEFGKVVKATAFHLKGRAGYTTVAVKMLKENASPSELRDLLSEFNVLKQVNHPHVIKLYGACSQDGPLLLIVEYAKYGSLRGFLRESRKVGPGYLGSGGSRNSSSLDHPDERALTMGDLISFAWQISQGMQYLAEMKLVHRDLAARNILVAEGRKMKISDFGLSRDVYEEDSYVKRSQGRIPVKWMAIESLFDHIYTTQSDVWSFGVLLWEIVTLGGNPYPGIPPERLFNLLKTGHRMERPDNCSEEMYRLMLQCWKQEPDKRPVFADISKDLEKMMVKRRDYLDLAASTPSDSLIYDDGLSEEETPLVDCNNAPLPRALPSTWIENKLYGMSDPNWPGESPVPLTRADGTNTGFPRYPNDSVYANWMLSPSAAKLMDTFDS

[10] = target: Cyclin-dependent kinase 2/cyclin A (Homo sapiens) (UniProt P24941+P20248+P78396); experiment: CDK2/CYCLINA DUNDEE kinase screen (BI); format: protein-complex assay; settings: Compound concentration 10.0 uM
[11] = target: 5-hydroxytryptamine receptor 7 (Homo sapiens) (UniProt P34969); settings: Compound concentration 10.0 uM
[12] = target: Sigma intracellular receptor 2 (Homo sapiens) (UniProt Q5BJF2); settings: Compound concentration 10.0 uM
[13] = target: Adrenergic receptor alpha-1 (Rattus norvegicus) (UniProt P15823+P23944+P43140)
[14] = target: Calcitonin-gene-related peptide receptor, CALCRL/RAMP1 (Homo sapiens) (UniProt O60894+Q16602)
[15] = target: D(3) dopamine receptor (Homo sapiens) (UniProt P35462); settings: Compound concentration 10.0 uM
[16] = target: Histamine H2 receptor (Homo sapiens) (UniProt P25021); settings: Compound concentration 10.0 uM
[17] = target: Collagenase 3 (Homo sapiens) (UniProt P45452); settings: Compound concentration 10.0 uM
[18] = target: Interstitial collagenase (Homo sapiens) (UniProt P03956); settings: Compound concentration 10.0 uM
[19] = target: Vasopressin V1a receptor (Homo sapiens) (UniProt P37288)
Sequence of Vasopressin V1a receptor (Homo sapiens) (P37288 whole entry, looked up): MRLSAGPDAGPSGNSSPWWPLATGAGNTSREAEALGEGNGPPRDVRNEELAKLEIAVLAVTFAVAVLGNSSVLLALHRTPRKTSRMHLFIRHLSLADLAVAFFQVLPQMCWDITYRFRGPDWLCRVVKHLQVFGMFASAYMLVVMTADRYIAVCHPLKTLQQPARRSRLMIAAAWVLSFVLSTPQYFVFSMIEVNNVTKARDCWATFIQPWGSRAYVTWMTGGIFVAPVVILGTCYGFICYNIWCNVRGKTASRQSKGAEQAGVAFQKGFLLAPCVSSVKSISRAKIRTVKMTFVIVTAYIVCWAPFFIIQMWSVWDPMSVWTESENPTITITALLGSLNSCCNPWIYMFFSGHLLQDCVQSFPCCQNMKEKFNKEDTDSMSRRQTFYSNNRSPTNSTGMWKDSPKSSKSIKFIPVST

[20] = target: AMPK alpha1/beta1/gamma2 (Homo sapiens) (UniProt Q9UGJ0+Q9Y478+Q13131); settings: Compound concentration 1.0 uM
[21] = target: CDK6/cyclin D1 (Homo sapiens) (UniProt P24385+Q00534); settings: Compound concentration 1.0 uM
[22] = target: Kinase suppressor of Ras 2 (Homo sapiens) (UniProt Q6VAB6); settings: Compound concentration 1.0 uM
[23] = target: MAP/microtubule affinity-regulating kinase 3 (Homo sapiens) (UniProt P27448); settings: Compound concentration 1.0 uM
Sequence of MAP/microtubule affinity-regulating kinase 3 (Homo sapiens) (P27448 whole entry, looked up): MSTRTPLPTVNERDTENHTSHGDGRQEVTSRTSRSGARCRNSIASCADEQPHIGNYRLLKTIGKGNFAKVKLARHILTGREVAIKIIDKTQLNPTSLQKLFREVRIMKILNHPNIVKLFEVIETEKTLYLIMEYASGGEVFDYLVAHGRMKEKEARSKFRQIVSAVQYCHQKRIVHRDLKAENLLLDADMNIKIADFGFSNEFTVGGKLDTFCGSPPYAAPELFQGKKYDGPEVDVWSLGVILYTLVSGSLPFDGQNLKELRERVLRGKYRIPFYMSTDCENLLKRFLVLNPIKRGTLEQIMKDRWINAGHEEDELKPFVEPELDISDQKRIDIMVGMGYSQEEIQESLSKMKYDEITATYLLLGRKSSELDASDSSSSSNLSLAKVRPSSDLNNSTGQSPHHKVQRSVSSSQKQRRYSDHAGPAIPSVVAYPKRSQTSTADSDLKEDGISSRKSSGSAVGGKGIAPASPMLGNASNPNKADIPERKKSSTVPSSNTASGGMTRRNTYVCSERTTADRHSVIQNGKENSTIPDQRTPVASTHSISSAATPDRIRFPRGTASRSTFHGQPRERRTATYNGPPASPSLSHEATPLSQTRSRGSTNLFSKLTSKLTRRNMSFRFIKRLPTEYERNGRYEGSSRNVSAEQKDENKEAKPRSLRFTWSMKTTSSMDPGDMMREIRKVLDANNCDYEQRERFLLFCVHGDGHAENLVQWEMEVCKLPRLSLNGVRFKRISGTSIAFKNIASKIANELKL

[24] = system: PI3-kinase p110-alpha/p85-alpha (Homo sapiens), P27986+P42336 [E545K]; settings: Compound concentration 1.0 uM
[25] = target: Serine/threonine-protein kinase 32C (Homo sapiens) (UniProt Q86UX6); settings: Compound concentration 1.0 uM
[26] = target: Ephrin type-A receptor 4 (Homo sapiens) (UniProt P54764); settings: Compound concentration 1.0 uM
[27] = target: Ephrin type-B receptor 4 (Homo sapiens) (UniProt P54760); settings: Compound concentration 1.0 uM
[28] = target: Mitogen-activated protein kinase 11 (Homo sapiens) (UniProt Q15759); settings: Compound concentration 1.0 uM
[29] = target: MAP kinase-activated protein kinase 5 (Homo sapiens) (UniProt Q8IW41); settings: Compound concentration 1.0 uM
[30] = target: Hepatocyte growth factor receptor (Homo sapiens) (UniProt P08581)
Sequence of Hepatocyte growth factor receptor (Homo sapiens) (P08581 whole entry): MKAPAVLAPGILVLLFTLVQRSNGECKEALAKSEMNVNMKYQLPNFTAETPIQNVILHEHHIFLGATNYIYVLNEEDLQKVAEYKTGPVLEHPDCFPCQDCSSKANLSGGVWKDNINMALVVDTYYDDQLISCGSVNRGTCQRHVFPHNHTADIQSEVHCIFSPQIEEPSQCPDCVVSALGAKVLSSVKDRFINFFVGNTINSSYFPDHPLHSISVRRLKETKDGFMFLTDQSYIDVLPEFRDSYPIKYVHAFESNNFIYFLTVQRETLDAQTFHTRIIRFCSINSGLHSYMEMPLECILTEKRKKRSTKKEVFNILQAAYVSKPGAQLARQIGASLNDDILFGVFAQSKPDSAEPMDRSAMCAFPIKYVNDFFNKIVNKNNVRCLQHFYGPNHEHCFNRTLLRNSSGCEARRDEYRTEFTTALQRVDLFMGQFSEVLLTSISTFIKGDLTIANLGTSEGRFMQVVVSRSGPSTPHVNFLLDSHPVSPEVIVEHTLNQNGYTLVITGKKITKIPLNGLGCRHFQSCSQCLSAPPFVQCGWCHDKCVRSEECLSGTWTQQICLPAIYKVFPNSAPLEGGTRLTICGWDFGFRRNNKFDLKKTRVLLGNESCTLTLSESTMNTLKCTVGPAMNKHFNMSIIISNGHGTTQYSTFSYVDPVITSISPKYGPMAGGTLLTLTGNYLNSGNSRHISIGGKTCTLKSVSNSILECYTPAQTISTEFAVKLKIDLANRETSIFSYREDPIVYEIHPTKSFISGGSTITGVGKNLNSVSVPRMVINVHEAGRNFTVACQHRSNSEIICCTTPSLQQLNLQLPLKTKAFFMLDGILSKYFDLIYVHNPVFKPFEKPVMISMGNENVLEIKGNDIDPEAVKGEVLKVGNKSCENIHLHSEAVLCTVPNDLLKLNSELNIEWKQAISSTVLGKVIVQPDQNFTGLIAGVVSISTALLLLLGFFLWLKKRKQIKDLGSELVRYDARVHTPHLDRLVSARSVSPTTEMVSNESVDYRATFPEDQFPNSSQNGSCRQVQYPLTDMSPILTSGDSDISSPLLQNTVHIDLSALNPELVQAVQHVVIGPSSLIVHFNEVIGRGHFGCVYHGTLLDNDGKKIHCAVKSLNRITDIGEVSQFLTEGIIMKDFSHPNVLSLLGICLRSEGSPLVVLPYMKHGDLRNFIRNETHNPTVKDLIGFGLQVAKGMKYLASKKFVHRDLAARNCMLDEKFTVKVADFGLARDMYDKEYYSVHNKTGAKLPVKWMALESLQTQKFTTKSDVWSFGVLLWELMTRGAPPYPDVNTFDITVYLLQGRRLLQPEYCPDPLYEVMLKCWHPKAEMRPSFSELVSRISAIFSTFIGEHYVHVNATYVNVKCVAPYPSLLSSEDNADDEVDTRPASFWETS

[31] = target: Serine/threonine-protein kinase Nek4 (Homo sapiens) (UniProt P51957); settings: Compound concentration 1.0 uM
[32] = target: Serine/threonine-protein kinase PAK 1 (Homo sapiens) (UniProt Q13153); settings: Compound concentration 1.0 uM
[33] = target: Phosphatidylinositol 4-phosphate 3-kinase C2 domain-containing subunit alpha (Homo sapiens) (UniProt O00443); settings: Compound concentration 1.0 uM
[34] = target: Phosphatidylinositol 4-phosphate 3-kinase C2 domain-containing subunit beta (Homo sapiens) (UniProt O00750); settings: Compound concentration 1.0 uM
[35] = target: Protein kinase C beta type (Homo sapiens) (UniProt P05771); settings: Compound concentration 1.0 uM
[36] = target: cGMP-dependent protein kinase 2 (Homo sapiens) (UniProt Q13237); settings: Compound concentration 1.0 uM
[37] = target: Ribosomal protein S6 kinase alpha-4 (Homo sapiens) (UniProt O75676); settings: Compound concentration 1.0 uM
[38] = target: Proto-oncogene tyrosine-protein kinase Src (Homo sapiens) (UniProt P12931)
Sequence of Proto-oncogene tyrosine-protein kinase Src (Homo sapiens) (P12931 2-536 limits assumed): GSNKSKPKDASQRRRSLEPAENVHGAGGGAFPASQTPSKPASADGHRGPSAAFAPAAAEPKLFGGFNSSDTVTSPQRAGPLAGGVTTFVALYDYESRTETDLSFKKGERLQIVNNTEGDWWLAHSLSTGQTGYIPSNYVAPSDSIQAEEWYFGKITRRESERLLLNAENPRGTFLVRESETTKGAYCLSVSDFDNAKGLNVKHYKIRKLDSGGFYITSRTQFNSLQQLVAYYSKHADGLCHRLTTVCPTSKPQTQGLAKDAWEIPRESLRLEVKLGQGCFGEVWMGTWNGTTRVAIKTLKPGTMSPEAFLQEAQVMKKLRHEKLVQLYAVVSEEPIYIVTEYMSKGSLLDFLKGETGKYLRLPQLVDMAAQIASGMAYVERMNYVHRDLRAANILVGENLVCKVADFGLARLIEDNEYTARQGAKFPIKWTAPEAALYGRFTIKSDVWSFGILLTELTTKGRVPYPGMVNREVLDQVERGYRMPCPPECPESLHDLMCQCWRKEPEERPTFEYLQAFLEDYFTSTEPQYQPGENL

[39] = target: Serine/threonine-protein kinase TBK1 (Homo sapiens) (UniProt Q9UHD2); settings: Compound concentration 1.0 uM
[40] = target: Lymphokine-activated killer T-cell-originated protein kinase (Homo sapiens) (UniProt Q96KB5); settings: Compound concentration 10.0 uM
Sequence of Lymphokine-activated killer T-cell-originated protein kinase (Homo sapiens) (Q96KB5 whole entry): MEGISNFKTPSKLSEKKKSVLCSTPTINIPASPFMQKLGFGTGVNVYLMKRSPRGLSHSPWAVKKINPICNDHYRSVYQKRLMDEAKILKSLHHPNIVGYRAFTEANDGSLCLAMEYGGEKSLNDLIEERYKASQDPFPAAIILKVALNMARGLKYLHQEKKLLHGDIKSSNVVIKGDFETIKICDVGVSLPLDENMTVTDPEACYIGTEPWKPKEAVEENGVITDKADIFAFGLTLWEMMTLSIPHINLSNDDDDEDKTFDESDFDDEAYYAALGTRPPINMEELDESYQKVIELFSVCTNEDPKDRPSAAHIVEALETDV

[41] = target: Phosphatidylinositol 4-kinase type 2-beta (Homo sapiens) (UniProt Q8TCG2); experiment: PI4K2B Invitrogen Lab (UK) kinase screen (BI); settings: Compound concentration 1.0 uM
[42] = Compound concentration 100.0 uM

## CCC(F)(F)c1cc(N2CCC(S(C)(=O)=O)CC2)nc2sc(C(N)=O)c(N)c12 [BI-605906]
[1]
  residual activity: 67%
[2]
  residual activity: 88%
[3]
  residual activity: 88%
[4]
  residual activity: 79%
[5]
  residual activity: 88%
[6]
  residual activity: 86%
[7]
  residual activity: 84%
[8]
  residual activity: 102%
[9]; Compound concentration 1.0 uM
  residual activity: 60%
[9]; Compound concentration 10.0 uM
  residual activity: 32%
[10]
  residual activity: 78%
[11]
  inhibition: 13.7%
[12]
  inhibition: 34.5%
[13]; Compound concentration 10.0 uM
  residual activity: 109%
[13]; [42]
  residual activity: 93%
[14]; Compound concentration 10.0 uM
  residual activity: 99%
[14]; [42]
  residual activity: 96%
[15]
  residual activity: 105%
[16]
  residual activity: 94%
[17]
  residual activity: 90%
[18]
  residual activity: 94%
[19]; Compound concentration 10.0 uM
  residual activity: 99%
[19]; [42]
  residual activity: 89%
[20]
  residual activity: 89%
[21]
  residual activity: 100%
[22]
  residual activity: 92%
[23]
  residual activity: 90%
[24]
  residual activity: 100%
[25]
  residual activity: 99%
[26]
  residual activity: 93%
[27]
  residual activity: 90%
[28]
  residual activity: 98%
[29]
  residual activity: 92%
[30]; Compound concentration 1.0 uM
  residual activity: 103%
[30]; Compound concentration 10.0 uM
  residual activity: 90%
[31]
  residual activity: 89%
[32]
  residual activity: 98%
[33]
  residual activity: 97%
[34]
  residual activity: 101%
[35]
  residual activity: 99%
[36]
  residual activity: 108%
[37]
  residual activity: 96%
[38]; Compound concentration 1.0 uM
  residual activity: 79%
[38]; Compound concentration 10.0 uM
  residual activity: 92%
[39]
  residual activity: 96%
[40]
  residual activity: 100%
[41]
  residual activity: 102%
